Earlier results as cited in patent US20210195875A1 (SMC GLOBAL ASSET, INC., priority 2016, published 2021).
“Also recorded” adds a separate entry of the source.

Legend:
mice = details: icv STZ alone

Row | SMILES | aggregation of a pathologic protein such as amyloid and tau (mice) | inflammation and neural function disorder (mice; compared with a gene modified model) | toxicity in rat primary cultured cells (dopaminergic neuron)
1 | CN(N=O)C(=O)N[C@H]1C(O)O[C@H](CO)[C@@H](O)[C@@H]1O (mixture of isomers) [icv STZ, streptozotocin] | no aggregation of a pathologic protein | intense inflammation and neural function disorder | 
2 | Cn1c(N)nc2ncc(-c3ccccc3)cc21 [PhIP, 2-amino-1-methyl-6-phenyl-1H-imidazo[4,5-b] pyridine] |  |  | toxicity in a dopaminergic neuron selective manner; also recorded: toxicity in a dopamine nerve selective manner
